Assay results published in patent US20030129189A1, “Tumor necrosis factor-gamma” (priority 1994, published 2003).

What was measured:
Primary HUVEC = assay: TNF-gamma activity on primary HUVEC; assay type: cell-based, human; parameters: key: The numbers of “+” indicate the relative level of activities.; ++: The numbers of “+” indicate the relative level of activities.; +++: The numbers of “+” indicate the relative level of activities.; “−” indicates no detected activity at the concentration range tested
[1] = test system: adult bovine aortic endothelial cells; assay: Endothelial cell apoptosis; assay type: cell-based
THP-1 = assay: TNF-gamma activity on THP-1 cells; assay type: cell-based; parameters: key: The numbers of “+” indicate the relative level of activities.; ++: The numbers of “+” indicate the relative level of activities.; +++: The numbers of “+” indicate the relative level of activities.; “−” indicates no detected activity at the concentration range tested; conditions: THP-1, human monocytic leukemia
[2] = test system: NF-kappaB p65 DNA-binding in U-937 cells; assay: NF-kappaB activation (EMSA); assay type: cell-based
Text: Activation of cellular NF-kappaB is preceded by the phosphorylation, ubiquitination, and ultimate degradation of an endogenous NF-kappaB inhibitor molecule designated IkBa. Degradation of the inhibitor allows the p65 subunit of NF-kappaB to translocate to the nucleus where it can act as a transcriptional regulator. For this reason, a electrophoretic mobility shift analysis (EMSA) is an appropriate method for analyzing activation of cellular NF-kappaB by treatment of cultured cells with TNF-gamma.
In these analyses cells (2×10^6 per ml) were treated with different concentrations (0.1-1.0 μg/ml) of bacterially-produced TNF-gamma at 37° C. for 12 hours. Nuclear extracts were then prepared from the cultured cells and EMSA was performed as is well-known in the art and essentially as described (Singh, S. and Aggarwal, B. B. J. Biol. Chem. 270:10631-10636 (1995)).

Jurkat = assay: TNF-gamma activity on Jurkat cells; assay type: cell-based; parameters: key: The numbers of “+” indicate the relative level of activities.; ++: The numbers of “+” indicate the relative level of activities.; +++: The numbers of “+” indicate the relative level of activities.; “−” indicates no detected activity at the concentration range tested; conditions: human T-cell lymphoma
Experimental: The adherent target cells were prepared from confluent cultures by trypsinization in PBS, and non-adherent target cells were harvested from stationary cultures and washed once with medium. Target cells were suspended at 3×10^5 cells/ml in medium containing 10% FCS. 0.1 ml aliquots were dispensed into 96-well flat-bottomed microtiter plates containing 0.1 ml serially diluted test samples of cells (WEHI 164 and L929). Incubation was continued for 70 hours. TNF-alpha, TNF-beta and bacterially-produced TNF-gamma were added at a 0.5 μg/ml concentration. The cytotoxicity and proliferation activity was quantified using an MTS assay performed by the addition of 20 μl of MTS and phenazine methosulfate (PMS) solution to each well. After a three hour incubation, the OD at 492 nm was measured by an ELISA plate reader. The OD492 is proportional to the number of viable cells in the wells. The percent of cytotoxicity was calculated as follows: […]. The photographs were taken after 72 hours.

[3] = test system: bFGF-induced corneal neovascularization; assay: Corneal angiogenic assay; assay type: in vivo, rat
Text: Basic FGF (“bFGF”) has been tested in this corneal angiogenic assay in various research laboratories for a variety of purposes. It has been shown that bFGF can induce significant angiogenesis in corneas (e.g., in rabbits, rats and mice). Based on the previous studies, bFGF was used in our study of TNF-gamma as an angiogenic factor to induce the growth of blood vessels in rat corneas.
An incision, 1-1.5 mm in length, is made in the center of the cornea with a microsurgery scalpel blade.
Starting at the incision, a micropocket is created between the collagenous layers of the corneal stroma with a Castroviego cyclodialysis spatula. This pocket extends to a point 1-2 mm from the capillary bed at the corneal-scleral limbus.
bFGF, which is incorporated 1:1 into non-inflammatory Hydron polymer (available from Interferon Sciences, New Brunswick, N.J.), is implanted into the pocket.
Five or seven days after corneal implantation, corneal blood perfusion with colloidal carbon is performed. Corneas are then harvested, fixed, flattened, mounted and photographed for morphology.
An image analysis system (IPLab) is used to quantify the corneal angiogenesis. The corneal surface area, which is covered by the new blood vessels, is quantified and used in our current study. After corneal implantation surgery, TNF-gamma, angiostatin or PBS in a volume of 25 microliters was injected into the conjunctival region adjacent to the implantation site. Based on molarities of TNF-gamma and angiostatin, 10 micrograms of TNF-gamma or 5 micrograms of angiostatin were given respectively four times, once a day, during the first four days post-surgery. TNF-gamma and angiostatin were prepared in PBS.
bFGF was used to induce neovascularization of the cornea from preexisting pericorneal limbal vessels in two different versions of the assay. First, corneas were surgically implanted with hydrogel plugs containing bFGF. […] In a separate study using an alternate version of this assay, both bFGF and treatment protein were co-administered on a nitrocellulose filter disk implanted within the rat corneal stroma. […] In both assays, the surface area of the angiogenic response was quantitated from digital images of treated corneas five days following implantation.

293 = assay: TNF-gamma activity on 293 cells; assay type: cell-based; parameters: key: The numbers of “+” indicate the relative level of activities.; ++: The numbers of “+” indicate the relative level of activities.; +++: The numbers of “+” indicate the relative level of activities.; “−” indicates no detected activity at the concentration range tested; conditions: 293, human embryonal kidney
A-431 = assay: TNF-gamma activity on A-431 cells; assay type: cell-based; parameters: key: The numbers of “+” indicate the relative level of activities.; ++: The numbers of “+” indicate the relative level of activities.; +++: The numbers of “+” indicate the relative level of activities.; “−” indicates no detected activity at the concentration range tested; conditions: A-431, human epidermoid carcinoma

TNF-gamma: new member of the tumor necrosis factor family; the term refers to TNF-gamma-alpha and/or TNF-gamma-beta
Differentiation (Primary HUVEC): −? | Proliferation (Primary HUVEC): ++ | apoptosis [1]: induces apoptosis | Adhesion (THP-1): ++ | Differentiation (THP-1): ++ | Proliferation (THP-1): − | concentration giving peak activation of DNA-binding by p65 ([2]; 12 hours): 1 µg/mL | lowest concentration giving an observable increase in p65 DNA-binding ([2]; 12 hours): 0.2 µg/mL | time span of p65 DNA-binding activation over basal levels ([2]; after initiation of treatment): from 30 minutes to 18 hours | Adhesion (Jurkat): −− | Differentiation (Jurkat): −− | Proliferation (Jurkat): − | angiogenic process in bFGF-implanted corneas ([3]; bFGF (300 ng) implant, conjunctival injection once a day for four days, 10 micrograms TNF-gamma or 5 micrograms angiostatin, seven days after surgery, vs PBS): significantly slowed down the angiogenic process | vessel growth in PBS-implanted corneas ([3]; multiple conjunctival injections): no obvious vessel growth | Adhesion 293: −− | Differentiation 293: −− | Proliferation 293: ++ | Adhesion (A-431): −− | Differentiation (A-431): −− | Proliferation (A-431): −
